Data set [1] has as its system tumor infiltrating CD8+ and CD4+ T cells. Kind of data set: Cellular phenotyping of tumor infiltrates in MC38-hPD-L1 tumor model. It is filed as in vivo, mouse. The settings on record: MC38-hPD-L1 tumors. The method, then: (§1) Cellular phenotyping of tumor infiltrates: Excised tumors were finely chopped with a blade and meshed through 200 um sieve. Cells were then filtered through a […] sieve. Cells were washed and resuspended in FACS buffer (PBS 1× with 10% FBS and 0.1% azide).
(§2) Antibodies for flow cytometry were obtained from BioLegend (San Diego, CA). Flow cytometer panel included CD45 in FITC, PD-L1 in PE, CD8 in APC, CD4 in APC-Cy7. Flow cytometry data were acquired with a FACSCanto II (BD Biosciences, San Jose, CA) cytometer and analyzed using FlowJO v10.2 (FlowJo, Ashland, OR)

Data set [2] relates to MC38-hPD-L1 tumor. Description: MC38-hPD-L1 tumor model in C57BL/6 mice. The settings on record: for animals that achieved complete regression: 10 mice in each group, compounds 30 mg/kg orally b.i.d., antibody i.p. twice a week. Format: in vivo, mouse. Here is the method: Generation and culture of MC38-hPD-L1 cells: The compounds are only known to cross-react with human PD-L1, therefore a syngeneic tumor model with […] MC-38 colon tumor cells expressing human PD-L1 (MC38-hPD-L1 tumor model) was used. The MC38-hPD-L1 cells were generated by GenOway. Endogenous mouse PD-L1 was first knocked out in MC38 cells using CRISPR technology, then human PDL1 was stably transfected in these mouse PD-L1 Knock-out MC38 cells. The MC38-hPD-L1 cells were cultured under standard conditions for MC38 cells (DMEM with 10% fetal bovine serum and Penicillin/Streptomycin) with G418 for maintaining transgene expression. 2 days prior to inoculation of these cells to mice, cells were trysinized and seeded without antibiotics.
(§3) In Vivo Studies: 8-week-old, female C57BL/6 mice were injected s.c. with 5×10^5 MC38-hPD-L1 cells in the right flank. 9 days after tumor inoculation mice were randomly assigned to treatment groups based on tumor size. Only mice that developed measurable tumors were enrolled in the studies. Anti-PD-L1 (Durvalumab) or isotype control was given i.p. twice a week at 100 ug per mouse per dose for 2 weeks. Compound 2.001 and Compound 2.002 suspended in 1% HPMC was dosed p.o. daily at indicated doses, dosing volume 100 μl per mouse. The vehicle, 1% HPMC, was dosed at the same volume with the same frequency for control animals.
Tumor volume was measured three times per week using a digital caliper and calculated as (width^2*length/2). Mice were sacrificed when tumor volumes reached 2,000 mm^3 in accordance with IACUC guidelines.
Tumor width (W) and length (L) were measured with calipers 3 times a week and the tumor volume was calculated using the formula V=(W (2)×L)/2. When tumors reach 2000 mm^3 mice were sacrificed and tumor excised for further analysis.

The target in data set [3] is T1, PD-L1 (Homo sapiens (Human), UniProt Q9NZQ7). Description: PathHunter PD-L1 Dimerization Assay in U2OS cells. Format: cell-based. Here is the method: Dimerization Assay PD-L1 protein dimerization was assessed in vitro by chemiluminescent detection using PathHunter® Dimerization assay (DiscoverX, Fremont, CA). The Assay was performed following vendor's protocol. 2×10^4 U2OS cells were plated in 96-well white bottom TC treated plates (Costar, San Jose, CA) in a final volume of 100 ul. ChemoCentryx compounds or anti-human PD-L1 antibody (AZ Medi4736 analog, CrownBio, Beijing) were added to experimental cells at different concentrations and incubated for 16 hours at 37° C. in 5% CO2. 110 ul of PathHunter Flash detection reagent (DiscoverX) was added to each well and incubated for 1 hour at room temperature in the dark. Chemiluminescent signal was measured on a FlexStation 3 plate reader (Molecular Devices, San Jose, CA) at a speed of 100 ms/well.
Target sequence in this assay (Q9NZQ7 19-290): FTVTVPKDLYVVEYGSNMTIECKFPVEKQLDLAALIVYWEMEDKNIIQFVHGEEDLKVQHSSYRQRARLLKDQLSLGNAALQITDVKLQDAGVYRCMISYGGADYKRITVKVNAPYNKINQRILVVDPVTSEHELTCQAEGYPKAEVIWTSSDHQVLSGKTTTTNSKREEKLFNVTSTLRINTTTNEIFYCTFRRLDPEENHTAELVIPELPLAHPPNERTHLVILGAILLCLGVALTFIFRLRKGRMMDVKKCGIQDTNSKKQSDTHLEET
Target sequence in this assay (Q9NZQ7 19-290): as above

The subject of data set [4] is PD-1/PD-L1 interaction. Description: PD-1/PD-L1 Blockade Cell-based Assay (NFAT luciferase reporter, CHO PD-L1 + Jurkat PD-1). The settings on record: Homo sapiens; CHO PD-L1 / Jurkat PD-1 co-culture; read-out: average EC50, NFAT promoter-driven luciferase expression. In general terms: In a reporter assay the amount or activity of a reporter protein is the signal.
The target of data set [5] is T1, PD-L1. Description: PD-L1 occupancy on cells isolated from MC38-hPD-L1 tumors (flow cytometry). The conditions noted are these: cells from treated MC38-hPD-L1 tumors. Format: in vivo, mouse. Here is the method: as §1, §2
To examine the extent Compound 2.001 occupys PD-L1 on tumor cells, we utilized another PD-L1 detection antibody to stain the cells isolated from these tumors.
(A flow cytometer gives signals particle by particle.)
Target sequence in this assay (Q9NZQ7 19-290): as above

Data set [6] relates to A375-eGFP cells. Kind of data set: In Vitro Immunotherapy Potency Assay (PBMC-mediated tumor cell killing). The settings on record: in the presence of pre-stimulated primary human PBMCs. It is filed as cell-based. The method, then:
In Vitro Immunotherapy Potency Assay: A375-eGFP-Puro Cells (ATCC) were grown in complete medium (DMEM+10% FBS+P/S 1×) containing lug/ml of puromycin. Human peripheral blood mononuclear cells (hPBMCs) were isolated from buffy coat from LRS chambers (leukoreduction systems) from healthy donors by density gradient centrifugation using StemCell SepMate™-50 tubes ([…] Technologies, Vancouver, CA) containing Ficoll-Paque Plus (Sigma Aldrich Inc., St. Louis, MO). […] Cells were washed twice and re-suspended into regular growth media. 3×10^4 A375-eGFP-Puro cells were seeded in 96-well clear bottom black TC treated plates in a final volume of 100 ul (Corning). Test compounds or anti-human PD-L1 antibody (AZ Medi4736 analog, CrownBio, Beijing) were added to the wells at different concentrations. SEB stimulated hPBMCs were added to the wells at a ratio of E:T (Effector cell: Target Cell) of […]. Mixed cells were incubated for 96 to 120 hours at 37° C. in 5% CO2. Medium was carefully aspired and 100 μl of PBS 1× was added to each well. Fluorescence from A375-eGFP cells was detected using FlexStation 3 plate reader.

In data set [7] the target is human PD-L1 / human PD-1 interaction (Homo sapiens (Human), UniProt Q9NZQ7). Kind of data set: PD-1/PD-L1 binding ELISA. The method, then:
96 Well plates were coated with 1 μg/mL of human PD-L1 (obtained from R&D) in PBS overnight at 4° C. The wells were then blocked with 2% BSA in PBS (W/V) with 0.05% TWEEN-20 for 1 hour at 37° C. The plates were washed 3 times with PBS/0.05% TWEEN-20 and the compounds were serial diluted (1:5) in dilution medium and added to the ELISA plates. Human PD-1 and biotin 0.3 μg/mL (ACRO Biosystems) were added and incubated for 1 hour at 37° C. then washed 3 times with PBS/0.05% TWEEN-20. A second block was performed with 2% BSA in PBS (W/V)/0.05% TWEEN-20 for 10 min at 37° C. and the plates were washed 3 times with PBS/0.05% TWEEN-20. Streptavidin-HRP was added for 1 hour at 37° C. then the plates were washed 3 times with PBS/0.05% TWEEN-20. TMB substrate was added and reacted for 20 min at 37° C. A stop solution (2 N aqueous H2SO4) was added. The absorbance was read at 450 nm using a micro-plate spectrophotometer. The results are shown in Table 1: IC50 values are provided as follows: from 1000 to 10,000 nM (+); from 10 up to 1000 nM (++); less than 10 nM (+++).
ELISA: This assay was performed substantially as described in Biological Example 1.
Background: ELISA stands for enzyme-linked immunosorbent assay.

Data set [8] has as its system human T cells. Description: Mixed Lymphocyte Reaction (MLR), IFNgamma release. It is filed as cell-based. The settings on record: for EC50: Homo sapiens, T-cell, T cells from different donors, read-out: EC50, release of INFgamma from human T cells. From the text: PBMCs Isolation: Peripheral blood mononuclear cells (PBMCs) were isolated from buffy coat from LRS chambers (leukoreduction systems) from healthy donors by density gradient centrifugation using StemCell SepMate™-50 tubes ([…] Technologies, Vancouver, CA) containing Ficoll-Paque Plus (Sigma Aldrich Inc., St. Louis, MO).
Generation of monocyte derived dendritic cells: CD14^+ monocytes were isolated from PBMCs by magnetic separation using human CD14^+ MicroBeads (MACS Miltenyi Biotech, Bergisch Gladbach, Germany) and an autoMACS® Pro Separator. Isolated monocytes were plated at a concentration of 1×10^6 cells/ml and differentiated to dendritic cells by adding GM-CSF (100 ng/ml) and IL-4 (50 ng/ml) for 6 days. Fresh media with cytokine supplement were added on day 0 and day 2. Mature dendritic cells were induced on day 6 by addition of IL-6 (2000 IU/ml), IL-1B (400 IU/ml) (Peprotech, Inc. Rocky Hill, NJ), TNFalpha (2000 IU/ml) and PGE2 (2 ug/ml) (Sigma Aldrich, Inc.) and cultured for 24 hours.
Preparation of human effector cells: CD4^+ T-Cells were isolated from PBMCs by magnetic separation using human CD4^+ MicroBeads (MACS Miltenyi Biotech) and an autoMACS® Pro Separator.
Mixed Lymphocyte Reaction (MLR): DC and CD4^+T-Cells from unmatched donors were cultured together in a ratio of 1:10 for 5 days in 96 well-flat bottom plates (Thermo Scientific). Test compounds were added as indicated at starting concentration of 1 μM with 1:4 dilutions with DMSO. PD-L1 antibody (AZ Medi4736 analog) and isotype control (Human IgG1, Kappa Isotype Control) (CrownBio, Beijing) were used as positive and negative control respectively. Supernatants were harvested after 5 days of incubation and detection of human IFNg was performed by ELISA using Human IFN-gamma DuoSet ELISA (R&D Systems, Minneapolis) as per manufacturer's instructions.

For data set [9], the target named is T1, PD-L1. Description: PD-L1 Internalization Assay (surface PD-L1 by flow cytometry). Format: cell-based. The settings on record: 37° C. Here is the method:
Internalization Assay: MC38-hPD-L1 cells (GenOway S.A., France) and RKO cells (ATCC) growing at 37° C. in 5% CO2 were detached, resuspended in cold FACS buffer (PBS 1× with 10% FBS and 0.1% azide) and added to 96-well assay plates (V-Bottom) (Axygen, Union City, CA) at a concentration of 10×10^4 cells/well. ChemoCentryx compounds or anti-human PD-L1 antibody (AZ Medi4736 analog) were added to the wells at different concentrations and incubated for 2 hours at 37° C. or 4° C. Cells were washed twice with iced cold FACS buffer and stained with recombinant rabbit monoclonal anti human PD-L1 antibody ([28-8] (PE) (ab209962), Abcam) or recombinant rabbit monoclonal IgG Isotype control ([EPR25A] (PE) (ab209478), Abcam) for 30 minutes on ice. Cells were washed twice with FACS buffer before performing FACS analysis. Data were analyzed using FlowJo software.
Target sequence in this assay (Q9NZQ7 19-290): as above

Data set [10] can be described thus: Plasma compound concentration in MC38-hPD-L1 tumor model. Format: in vivo, mouse. The conditions noted are these: trough after 3 days of dosing, oral. Here is the method: as §3
[11] abbreviates: PD-1/PD-L1 ELISA, class symbols, read-out: ELISA IC50.
Setting [12] is: average from multiple assays, read-out: average IC50, inhibition of direct interaction of PD-L1 to PD-1.

Entries after “also recorded” stand apart in the source; their conditions may differ. Where two headings read alike, the source gives them in different places. A value given as a limit tells only on which side of the number the result lay.

human PD-L1 / human PD-1 interaction, sequence (Q9NZQ7 19-239): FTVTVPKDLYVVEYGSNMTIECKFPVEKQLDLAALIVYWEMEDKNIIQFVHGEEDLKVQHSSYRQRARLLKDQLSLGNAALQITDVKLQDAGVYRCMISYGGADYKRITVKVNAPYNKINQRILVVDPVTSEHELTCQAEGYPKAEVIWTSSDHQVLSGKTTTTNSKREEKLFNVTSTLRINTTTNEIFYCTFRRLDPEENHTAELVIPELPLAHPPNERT

What is called EC50 is the concentration that produces a half-maximal response. By IC50 is commonly meant the point on the concentration scale where inhibition reaches its midpoint. On to `COc1nc(-c2cccc(-c3cccc(NC(=O)c4cn(C)c(=O)n(C)c4=O)c3C)c2Cl)ccc1CNC[C@@H]1CCC(=O)N1` [Compound 2.001], for which the “tumor infiltrating CD8+ and CD4+ T cells” value in [1] is listed as “increased”. Further, in data set [2], the “animals that achieved complete regression” value was 4 animals. Also, in data set [3], the PD-L1 dimerization signal result is “strongly induced the dimerization signal; also recorded: induce PD-L1 dimerization”. The concentration giving a half-maximal response (EC50) was 52 nM in data set [4] and below 100 nM in data set [8]. For the same molecule, the “PD-L1 occupancy on tumor cells” value in data set [5] is “near complete PD-L1 occupancy”. Further, the “killing of GFP labeled human cancer cell line A375” value in data set [6] is “promote killing”. Besides, the results for the IC50 in data set [7] (setting [11]) and in data set [7] (setting [12]) were below 10 nM and 0.3 nM, respectively. Also, the “release of INFgamma from human T cells” value in data set [8] is recorded as “dose dependently increase”. The “surface PD-L1 levels” value in [9] was “profoundly reduces surface PD-L1 levels; also recorded: lower the surface PD-L1 levels”.
Turning to `COc1nc(-c2cccc(-c3cccc(NC(=O)c4cn(C)c(=O)n(C)c4=O)c3Cl)c2Cl)ccc1CNC[C@@H]1CCC(=O)N1` [Compound 2.002], in data set [2] (30 mg/kg (b.i.d.), orally), the “mice with complete eradication of the tumors” value is reported as “Eight of the ten”. Further, the tumor growth entry in data set [2] (dosed orally, several doses) is listed as “dose dependently suppresses tumor growth; also recorded: tumor growth suppression in a dose-dependent manner”. The PD-L1 dimerization signal result in data set [3] is listed as “strongly induced the dimerization signal; also recorded: induce PD-L1 dimerization”. In addition, the results for the EC50 in [4] and in [8] were 46 nM and below 100 nM, respectively. For the same molecule, in data set [6], the “killing of GFP labeled human cancer cell line A375” value was “promote killing”. For the same molecule, the IC50 in data set [7] (setting [11]) was below 10 nM; in [7] (setting [12]) it was 0.4 nM. Besides, in data set [8], the “release of INFgamma from human T cells” value is “dose dependently increase”. Moreover, the plasma compound concentrations result in data set [10] was “dose-dependency”. The “surface PD-L1 levels” value in [9] is reported as “profoundly reduces surface PD-L1 levels; also recorded: lower the surface PD-L1 levels”.
For the molecule `COc1nc(-c2cccc(-c3cccc(NC(=O)c4cn(C)c(=O)n(C)c4=O)c3C)c2Cl)ccc1CN[C@@H]1CCOC[C@@H]1O` [Compound 2.003], the IC50 in data set [7] (setting [11]) is below 10 nM.
Take Durvalumab [reference compound]: the “animals that achieved complete regression” value in data set [2] is recorded as 6 animals. Besides, in data set [3] (listed as anti-PD-L1 antibody), the PD-L1 dimerization signal entry is recorded as “do not induce such signal”. Further, the “surface PD-L1 levels” value in data set [9] is listed as “no effect”.

The values above are taken from US20240115682A1, “METHODS OF TREATING CANCER USING HETEROARYL-BIPHENYL AMIDE DERIVATIVES” (CHEMOCENTRYX, INC., priority 2020, published 2024).
